Key:
[1] = after 2 h
M^pro = conditions: at 100 μM; cited from earlier work

SMILES: CCCCCCNC(=O)n1cc(F)c(=O)[nH]c1=O [Carmofur]
- starting material consumed by cysteine [1]: 75%

SMILES: C=C(CC)C(=O)c1ccc(OCC(=O)O)c(Cl)c1Cl [EA, ethacrynic acid]
- inhibition of M^pro (M^pro): approximately 20%

From PMC11342919 (RSC Advances, 2024)
